Source: patent US10378046B2, “Method of targeting mismatched DNA using d8 square planar metal complexes” (The University of Hong Kong, priority 2015, dated 2019)

Columns and labels:
Format in all cases: binding
CC mismatched DNA [1] = assay: Isothermal titration calorimetry with CC mismatched DNA; conditions: 0.1 mM complex titrated by 0.75 mM DNA; 50 mM NaCl, 2 mM Tris, pH 7.5
Source text: ITC measures the heat absorbed or generated during a bi-molecular binding event. During ITC experiment of titrating known concentration of titrant (DNA molecules) to known quantity of titrate (Pt(II) complexes), Pt(II) complexes would bind onto the DNA molecules, generating incremental heat changes (in the unit of microcalories (μcal)). Through accurate measurement of the heat changes in each step of the titration and fitting the data by using a non-liner least square method, the best-fitted graph would yield the binding constant (K) of the bi-molecular interaction.
To determine the binding constant of Pt(II) complexes with CC mismatched DNA, 0.1 mM of Pt(II) complex in an aqueous buffer solution (50 mM NaCl, 2 mM Tris, pH 7.5) was titrated by 0.75 mM of DNA. Heat released from each step of titration had been recorded.

matched DNA [2] = assay: Isothermal titration calorimetry with matched DNA; conditions: 0.1 mM complex titrated by 0.75 mM DNA; 50 mM NaCl, 2 mM Tris, pH 7.5
CC mismatched DNA [3] = assay: Emission enhancement of complexes upon titration with CC mismatched DNA; conditions: complex 5 μM, DNA 10 μM; for increase in emission intensity in the presence of CC mismatched DNA: aqueous buffer 50 mM NaCl, 2 mM Tris, pH 7.5; for ratio of emission enhancement by CC mismatched DNA to that by matched DNA (ΔIcc/ΔImat): aqueous buffer pH 7.5
Method: (§1) FIGS. 1A and 1B are graphs showing the emission spectra of complex 5 (5 μM) in an aqueous buffer solution (50 mM NaCl, 2 mM Tris, pH 7.5) after binding to different concentrations of CC mismatched DNA (left) and well-matched DNA (right).
(§2) FIG. 4 is a graph showing the emission enhancement of different complexes (5 μM) towards CC mismatched DNA and matched DNA (10 μM). FIG. 5 is a graph showing the difference in emission enhancement between CC mismatched DNA and matched DNA by different complexes.

matched DNA [4] = assay: Emission enhancement of complexes upon titration with well-matched DNA; conditions: complex 5 μM, DNA 10 μM; aqueous buffer 50 mM NaCl, 2 mM Tris, pH 7.5
Method: as §1, §2
Upon addition of CC mismatch DNA, a growth of the emission band was observed, and a 27-fold increase in emission intensity was found when the concentration of CC mismatched DNA was twice as much as that of the concentration of complex 5 (FIGS. 1A and 1B). It is noteworthy that the emission enhancement of complex 5 towards CC mismatched DNA was around 7-fold more than that toward matched DNA (FIG. 2).

`CN1C=CN(C)[CH]1[Pt]12[c]3ccccc3-c3cccc([n+]31)-c1cccc[n+]12` (centres unmarked) [Complex 1] was tested, and the “difference in heat change between titration with CC mismatched DNA and matched DNA (ITC)” value (CC mismatched DNA [1]) was “no distinguishable difference in heat change”.

`CCCCN1C=CN(Cc2ccccc2)[CH]1[Pt]12[c]3ccccc3-c3cccc([n+]31)-c1cccc[n+]12` (centres unmarked) [Complex 5] was tested, and the “heat change in the binding of matched DNA (ITC)” value (matched DNA [2]) was “no significant heat change”, the “binding constant (K) with CC mismatched DNA by ITC” value (CC mismatched DNA [1]) was 1.18×10^4 and the “increase in emission intensity in the presence of CC mismatched DNA” value (“increase … of CC mismatched DNA” for short) (CC mismatched DNA [3]) was 27 fold.

With `C1=CN(Cc2ccccc2)[CH]([Pt]23[c]4ccccc4-c4cccc([n+]42)-c2cccc[n+]23)N1Cc1ccccc1` (centres unmarked) [Complex 8] the “increase in emission intensity in the presence of matched DNA” value (shortened to “increase … of matched DNA”) (matched DNA [4]) was “small emission enhancements”, the “increase … of CC mismatched DNA” value (CC mismatched DNA [3]) was “small emission enhancements” and the “ratio of emission enhancement by CC mismatched DNA to that by matched DNA (ΔIcc/ΔImat)” value (from here on “ratio of emission enhancement … (ΔIcc/ΔImat)”) (CC mismatched DNA [3]) was “smaller ratios of emission enhancement by CC mismatched DNA to the enhancement by matched DNA than complex 5”.

With `OCCN1C=CN(Cc2ccccc2)[CH]1[Pt]12[c]3ccccc3-c3cccc([n+]31)-c1cccc[n+]12` (centres unmarked) [Complex 9] the “increase … of matched DNA” value (matched DNA [4]) was “strong emission enhancement” and the “ratio of emission enhancement … (ΔIcc/ΔImat)” value (CC mismatched DNA [3]) was “smaller ratios of emission enhancement by CC mismatched DNA to the enhancement by matched DNA than complex 5”.

In the case of `CCCCN1C=CN(Cc2ccc3ccccc3c2)[CH]1[Pt]12[c]3ccccc3-c3cccc([n+]31)-c1cccc[n+]12` (centres unmarked) [Complex 11], the “increase … of matched DNA” value (matched DNA [4]) is reported as “no emission enhancement” and the “increase … of CC mismatched DNA” value (CC mismatched DNA [3]) is reported as “no emission enhancement”.

With `CCCCN1C=CN(Cc2ccccc2)[CH]1[Pt]12[c]3ccccc3-c3cc(-c4ccccc4)cc([n+]31)-c1cccc[n+]12` (centres unmarked) [Complex 16] the “increase … of matched DNA” value (matched DNA [4]) was “no emission enhancement” and the “increase … of CC mismatched DNA” value (CC mismatched DNA [3]) was “no emission enhancement”.

With `C1=CN(CN2C=CN(Cc3ccccc3)[CH]2[Pt]23[c]4ccccc4-c4cccc([n+]42)-c2cccc[n+]23)[CH]([Pt]23[c]4ccccc4-c4cccc([n+]42)-c2cccc[n+]23)N1Cc1ccccc1` (centres unmarked) [Complex 21] the “ratio of emission enhancement … (ΔIcc/ΔImat)” value (CC mismatched DNA [3]) was “largest ΔIcc/ΔImat value”.
